Tests used:
Assay type in all cases: biochemical
Pim1 kinase = Pim1 kinase (Homo sapiens, UniProt P11309); assay: Pim1 ATP depletion assay; conditions: Pim1 ATP depletion assay; read-out: IC50 (μM) PIM1;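 further: Luciferase-luciferin luminescence readout of residual ATP after PIM1 transfers phosphate to a peptide substrate, 40 µM ATP added, reaction run to roughly half ATP consumption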
Pim2 kinase = Pim2 kinase (Homo sapiens, UniProt Q9P1W9); assay: Pim2 ATP depletion assay; conditions: read-out: IC50 (μM) PIM2;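 further: Luciferase-based luminescent readout of ATP remaining after PIM2 phosphorylates a BAD peptide, final 5 nM enzyme, 4 µM ATP, 10 µM peptide, 2.5% DMSO, run to roughly half ATP consumption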
Pim2 kinase, sequence (Q9P1W9 whole entry): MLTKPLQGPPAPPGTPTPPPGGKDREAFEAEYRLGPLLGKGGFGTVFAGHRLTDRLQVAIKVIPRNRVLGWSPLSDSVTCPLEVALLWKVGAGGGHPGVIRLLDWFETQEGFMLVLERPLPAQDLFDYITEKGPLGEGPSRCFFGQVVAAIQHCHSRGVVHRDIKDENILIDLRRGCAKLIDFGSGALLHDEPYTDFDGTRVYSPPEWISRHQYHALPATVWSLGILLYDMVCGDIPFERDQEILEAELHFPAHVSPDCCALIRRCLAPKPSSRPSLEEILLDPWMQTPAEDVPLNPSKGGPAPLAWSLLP

Pim3 kinase = Pim3 kinase (Homo sapiens, UniProt Q86V86); assay: Pim3 ATP depletion assay; conditions: read-out: IC50 (μM) PIM3

Measured: IC50

Pim1 kinase, sequence (P11309 whole entry): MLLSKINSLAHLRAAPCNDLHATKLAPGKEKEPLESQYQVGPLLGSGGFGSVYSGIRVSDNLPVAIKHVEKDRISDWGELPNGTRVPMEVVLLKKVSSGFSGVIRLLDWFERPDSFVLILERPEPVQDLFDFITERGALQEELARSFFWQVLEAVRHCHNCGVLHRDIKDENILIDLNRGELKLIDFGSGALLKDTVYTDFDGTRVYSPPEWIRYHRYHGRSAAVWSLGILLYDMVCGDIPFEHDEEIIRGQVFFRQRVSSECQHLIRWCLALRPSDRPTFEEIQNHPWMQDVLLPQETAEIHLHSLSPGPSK

Nc1ncc(-c2ccc(N)c(C(=O)Nc3cnccc3N3CCC[C@H](N)C3)n2)c(N)n1 [Example 417, 3-amino-6-(2,4-diamino-pyrimidin-5-yl)-pyridine-2-carboxylic acid ((S)-3-amino-3,4,5,6-tetrahydro-2H-[1,4′]bi-pyridinyl-3′-yl)-amide]
< 1 µM: all assays above

Nc1ccc(-c2ccc(Cl)cc2F)nc1C(=O)Nc1cnccc1N1CCC[C@H](N)C1 [Example 420, 3-amino-6-(4-chloro-2-fluoro-phenyl)-pyridine-2-carboxylic acid ((S)-3-amino-3,4,5,6-tetra-hydro-2H-[1,4′]bipyridinyl-3′-yl)-amide]
< 1 µM: all assays above

N[C@H]1CCCN(c2ccncc2NC(=O)c2ccc(F)c(-c3ccccc3F)n2)C1 [Example 444, 5-Fluoro-6-(2-fluoro-phenyl)-pyridine-2-carboxylic acid (3-amino-3,4,5,6-tetrahydro-2H-[1,4′]bipyridinyl-3′-yl)-amide]
< 1 µM: all assays above

Nc1ccc(-c2ccc(-c3cccs3)s2)nc1C(=O)Nc1cnccc1N1CCC[C@H](N)C1 [Example 446, 3-Amino-6-[2,2′]bithiophenyl-5-yl-pyridine-2-carboxylic acid (3-amino-3,4,5,6-tetrahydro-2H-[1,4′]bipyridinyl-3′-yl)-amide]
< 1 µM: all assays above

Cc1ccsc1-c1ccc(N)c(C(=O)Nc2cnccc2N2CCC[C@H](N)C2)n1 [Example 448, 3-Amino-6-(3-methyl-thiophen-2-yl)-pyridine-2-carboxylic acid (3-amino-3,4,5,6-tetrahydro-2H-[1,4′]bipyridinyl-3′-yl)-amide]
< 1 µM: all assays above

Nc1ccc(-c2ccsc2)nc1C(=O)Nc1cnccc1N1CCC[C@H](N)C1 [Example 449, 3-Amino-6-thiophen-3-yl-pyridine-2-carboxylic acid (3-amino-3,4,5,6-tetrahydro-2H-[1,4′]bipyridinyl-3′-yl)-amide]
< 1 µM: all assays above

Nc1ccc(-c2ccc(Cl)s2)nc1C(=O)Nc1cnccc1N1CCC[C@H](N)C1 [Example 450, 3-Amino-6-(5-chloro-thiophen-2-yl)-pyridine-2-carboxylic acid (3-amino-3,4,5,6-tetrahydro-2H-[1,4′]bipyridinyl-3′-yl)-amide]
< 1 µM: all assays above

Cc1csc(-c2ccc(N)c(C(=O)Nc3cnccc3N3CCC[C@H](N)C3)n2)c1 [Example 451, 3-Amino-6-(4-methyl-thiophen-2-yl)-pyridine-2-carboxylic acid (3-amino-3,4,5,6-tetrahydro-2H-[1,4′]bipyridinyl-3′-yl)-amide]
< 1 µM: all assays above

CCc1cccc(-c2ccc(N)c(C(=O)Nc3cnccc3N3CCC[C@H](N)C3)n2)c1 [Example 452, 3-Amino-6-(3-ethyl-phenyl)-pyridine-2-carboxylic acid (3-amino-3,4,5,6-tetrahydro-2H-[1,4′]bipyridinyl-3′-yl)-amide]
< 1 µM: all assays above

CC(C)NC(=O)c1ccc(F)c(-c2cccc(C(=O)Nc3cnccc3N3CCC[C@H](N)C3)n2)c1 [Example 453, 6-(2-Fluoro-5-isopropylcarbamoyl-phenyl)-pyridine-2-carboxylic acid (3-amino-3,4,5,6-tetrahydro-2H-[1,4′]bipyridinyl-3′-yl)-amide]
< 1 µM: all assays above

CC(C)c1cccc(-c2ccc(N)c(C(=O)Nc3cnccc3N3CCC[C@H](N)C3)n2)c1 [Example 456, 3-Amino-6-(3-isopropyl-phenyl)-pyridine-2-carboxylic acid (3-amino-3,4,5,6-tetrahydro-2H-[1,4′]bipyridinyl-3′-yl)-amide]
< 1 µM: all assays above

N#CCc1cccc(-c2ccc(N)c(C(=O)Nc3cnccc3N3CCC[C@H](N)C3)n2)c1 [Example 457, 3-Amino-6-(3-cyanomethyl-phenyl)-pyridine-2-carboxylic acid (3-amino-3,4,5,6-tetrahydro-2H-[1,4′]bipyridinyl-3′-yl)-amide]
< 1 µM: all assays above

Nc1ccc(-c2cccc(-c3ccccc3)c2)nc1C(=O)Nc1cnccc1N1CCC[C@H](N)C1 [Example 458, 3-Amino-6-biphenyl-3-yl-pyridine-2-carboxylic acid (3-amino-3,4,5,6-tetrahydro-2H-[1,4′]bipyridinyl-3′-yl)-amide]
< 1 µM: all assays above

Nc1ccc(-c2cccc(Br)c2)nc1C(=O)Nc1cnccc1N1CCC[C@H](N)C1 [Example 459, 3-Amino-6-(3-bromo-phenyl)-pyridine-2-carboxylic acid (3-amino-3,4,5,6-tetrahydro-2H-[1,4′]bipyridinyl-3′-yl)-amide]
< 1 µM: all assays above

Nc1ccc(-c2cccc(C(F)(F)F)c2)nc1C(=O)Nc1cnccc1N1CCC[C@H](N)C1 [Example 460, 3-Amino-6-(3-trifluoromethyl-phenyl)-pyridine-2-carboxylic acid (3-amino-3,4,5,6-tetrahydro-2H-[1,4′]bipyridinyl-3′-yl)-amide]
< 1 µM: all assays above

N#Cc1cccc(-c2ccc(N)c(C(=O)Nc3cnccc3N3CCC[C@H](N)C3)n2)c1 [Example 461, 3-Amino-6-(3-cyano-phenyl)-pyridine-2-carboxylic acid (3-amino-3,4,5,6-tetrahydro-2H-[1,4′]bipyridinyl-3′-yl)-amide]
< 1 µM: all assays above

Nc1ccc(-c2c(F)ccc(OCc3ccccc3Cl)c2F)nc1C(=O)Nc1cnccc1N1CCC[C@H](N)C1 [Example 464, 3-Amino-6-[3-(2-chloro-benzyloxy)-2,6-difluoro-phenyl]-pyridine-2-carboxylic acid (3-amino-3,4,5,6-tetrahydro-2H-[1,4′]bipyridinyl-3′-yl)-amide]
< 1 µM: all assays above

Nc1ccc(-c2c(F)ccc(OCc3ccccc3F)c2F)nc1C(=O)Nc1cnccc1N1CCC[C@H](N)C1 [Example 465, 3-Amino-6-[2,6-difluoro-3-(2-fluoro-benzyloxy)-phenyl]-pyridine-2-carboxylic acid (3-amino-3,4,5,6-tetrahydro-2H-[1,4′]bipyridinyl-3′-yl)-amide]
< 1 µM: all assays above

CCCCOc1ccc(F)c(-c2ccc(N)c(C(=O)Nc3cnccc3N3CCC[C@H](N)C3)n2)c1F [Example 466, 3-Amino-6-(3-butoxy-2,6-difluoro-phenyl)-pyridine-2-carboxylic acid (3-amino-3,4,5,6-tetrahydro-2H-[1,4′]bipyridinyl-3′-yl)-amide]
< 1 µM: all assays above

CC(C)Oc1ccc(F)c(-c2ccc(N)c(C(=O)Nc3cnccc3N3CCC[C@H](N)C3)n2)c1 [Example 467, 3-Amino-6-(2-fluoro-5-isopropoxy-phenyl)-pyridine-2-carboxylic acid (3-amino-3,4,5,6-tetrahydro-2H-[1,4′]bipyridinyl-3′-yl)-amide]
< 1 µM: all assays above

CCCOc1ccc(F)c(-c2ccc(N)c(C(=O)Nc3cnccc3N3CCC[C@H](N)C3)n2)c1 [Example 468, 3-Amino-6-(2-fluoro-5-propoxy-phenyl)-pyridine-2-carboxylic acid (3-amino-3,4,5,6-tetrahydro-2H-[1,4′]bipyridinyl-3′-yl)-amide]
< 1 µM: all assays above

CCOc1ccc(F)c(-c2ccc(N)c(C(=O)Nc3cnccc3N3CCC[C@H](N)C3)n2)c1 [Example 469, 3-Amino-6-(5-ethoxy-2-fluoro-phenyl)-pyridine-2-carboxylic acid (3-amino-3,4,5,6-tetrahydro-2H-[1,4′]bipyridinyl-3′-yl)-amide]
< 1 µM: all assays above

COc1ccc(F)c(-c2ccc(N)c(C(=O)Nc3cnccc3N3CCC[C@H](N)C3)n2)c1 [Example 470, 3-Amino-6-(2-fluoro-5-methoxy-phenyl)-pyridine-2-carboxylic acid (3-amino-3,4,5,6-tetrahydro-2H-[1,4′]bipyridinyl-3′-yl)-amide]
< 1 µM: all assays above

COc1cccc(-c2ccc(N)c(C(=O)Nc3cnccc3N3CCC[C@H](N)C3)n2)c1F [Example 471, 3-Amino-6-(2-fluoro-3-methoxy-phenyl)-pyridine-2-carboxylic acid (3-amino-3,4,5,6-tetrahydro-2H-[1,4′]bipyridinyl-3′-yl)-amide]
< 1 µM: all assays above

Cc1ccncc1-c1ccc(N)c(C(=O)Nc2cnccc2N2CCC[C@H](N)C2)n1 [Example 472, 5-Amino-4′-methyl-[2,3′]bi-pyridinyl-6-carboxylic acid (3-amino-3,4,5,6-tetrahydro-2H-[1,4′]bipyridinyl-3′-yl)-amide]
< 1 µM: all assays above

Nc1ccc(-c2ccc(-c3ccccc3)cc2)nc1C(=O)Nc1cnccc1N1CCC[C@H](N)C1 [Example 473, 3-Amino-6-biphenyl-4-yl-pyridine-2-carboxylic acid (3-amino-3,4,5,6-tetrahydro-2H-[1,4′]bipyridinyl-3′-yl)-amide]
< 1 µM: all assays above

Nc1ccc(-c2sccc2Cl)nc1C(=O)Nc1cnccc1N1CCC[C@H](N)C1 [Example 474, 3-Amino-6-(3-chloro-thiophen-2-yl)-pyridine-2-carboxylic acid (3-amino-3,4,5,6-tetrahydro-2H-[1,4′]bipyridinyl-3′-yl)-amide]
< 1 µM: all assays above

— patent US20140249135A1, “PIM KINASE INHIBITORS AND METHODS OF THEIR USE” (NOVARTIS AG, priority 2007, published 2014)
